Measured values from the supplement of paper PMC9663587.

Legend:
[1] = compound: CC(=O)O[C@H]1C(=O)[C@@]2(C)[C@H]([C@H](OC(=O)c3ccccc3)[C@]3(O)C[C@H](OC(=O)[C@H](O)[C@@H](NC(=O)c4ccccc4)c4ccccc4)C(C)=C1C3(C)C)[C@]1(OC(C)=O)CO[C@@H]1C[C@@H]2O [Paclitaxel]
[2] = compound: T1, CN(C)C/C=C/C(=O)Nc1ccc(C(=O)N2CCC[C@@H](Nc3ncc(Cl)c(-c4c[nH]c5ccccc45)n3)C2)cc1 [THZ531]
[3] = compound: CN(C)C/C=C/C(=O)Nc1ccc(O[C@@H]2CCC[C@@H](Nc3ncc(Cl)c(-c4c[nH]c5ccccc45)n3)C2)cc1 [BSJ-01-175]
[4] = compound: CN1CCN(C(=O)c2ccc3cc(CCNc4ncnc5ccc(C#N)cc45)ccc3c2)CC1 [senexin b]
[5] = compound: CNCc1ccc(-c2[nH]c3cc(F)cc4c3c2CCNC4=O)cc1 [Rucaparib]
[6] = compound: COc1cc2c(Oc3ccc4[nH]c(C)cc4c3F)ncnc2cc1OCCCN1CCCC1 [Cediranib/AZD2171]
[7] = compound: CS(=O)(=O)N1CCN(Cc2cc3nc(-c4cccc5[nH]ncc45)nc(N4CCOCC4)c3s2)CC1 [Pictilisib/GDC0941]
[8] = compound: Cc1cc(Nc2ncc(Cl)c(Nc3ccccc3S(=O)(=O)C(C)C)n2)c(OC(C)C)cc1C1CCNCC1 [Ceritinib/LDK378]
[9] = compound: O=C1NC(=O)[C@@H](c2cn3c4c(cccc24)CCC3)[C@@H]1c1c[nH]c2ccccc12 [Tivantinib/ARQ197]
[10] = compound: C=CC(=O)Nc1ccc(C(=O)Nc2[nH]nc3c2CN(C(=O)N[C@H](CN(C)C)c2ccccc2)C3(C)C)cc1 [YKL-5-124]; experiment: GR value, 72 h; higher = faster growth (1 = untreated, <0 = killing);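 note: breast cancer and non-malignant breast epithelial lines, nine half-log doses, viable cells counted by Hoechst and LIVE/DEAD dye imaging versus time-zero plates and DMSO controls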
[11] = compound: CC(=O)c1c(C)c2cnc(Nc3ccc(N4CCN(CCOCCOCCOCCNC(=O)COc5cccc6c5C(=O)N(C5CCC(=O)NC5=O)C6=O)CC4)cn3)nc2n(C2CCCC2)c1=O [BSJ-03-123]; experiment: as above
[12] = compound: CC(=O)c1c(C)c2cnc(Nc3ccc(N4CCNCC4)cn3)nc2n(C2CCCC2)c1=O; experiment: as above
[13] = compound: CCN1CCN(Cc2ccc(Nc3ncc(F)c(-c4cc(F)c5nc(C)n(C(C)C)c5c4)n3)nc2)CC1; experiment: as above
[14] = compound: CCc1cnn2c(NCc3ccc[n+]([O-])c3)cc(N3CCCC[C@H]3CCO)nc12; experiment: as above
[15] = compound: CN(C)C(=O)c1cc2cnc(Nc3ccc(N4CCNCC4)cn3)nc2n1C1CCCC1 [LEE011/Ribociclib]; experiment: as above
[16] = compound: T1, THZ531; experiment: as above
[17] = compound: CN(C)C/C=C/C(=O)Nc1ccc(C(=O)Nc2cccc(Nc3ncc(Cl)c(-c4c[nH]c5ccccc45)n3)c2)cc1 [THZ1]; experiment: as above
[18] = compound: C[C@@H]1COCCN1c1cc(C2([S@](C)(=N)=O)CC2)nc(-c2cc[nH]c3nccc2-3)n1 [AZD6738]
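Throughout, for GR50, 72 h: breast cancer and non-malignant breast epithelial cell lines, Deep Dye Drop or Dye Drop imaging, nine half-log doses, GR normalized to time-zero plates and DMSO-only controls.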

## PDX1328
[1]
  GR50, 72 h: 0.00287 µM
[2]
  GR50, 72 h: 0.0399 µM
[3]
  GR50, 72 h: 0.00722 µM
[4]
  GR50, 72 h: > 10 µM
[5]
  GR50, 72 h: > 10 µM
[6]
  GR50, 72 h: 4.04 µM
[7]
  GR50, 72 h: 0.878 µM
[8]
  GR50, 72 h: 0.629 µM
[9]
  GR50, 72 h: 0.239 µM
[10]; 0.001 µM
  GR value: 0.525 GR
[10]; 0.003162 µM
  GR value: 0.572 GR
[10]; 0.01 µM
  GR value: 0.406 GR
[10]; 0.03162 µM
  GR value: 0.424 GR
[10]; 0.1 µM
  GR value: 0.45 GR
[10]; 0.3162 µM
  GR value: 0.301 GR
[10]; 1 µM
  GR value: 0.351 GR
[10]; 3.162 µM
  GR value: 0.295 GR
[10]; 10 µM
  GR value: -0.0349 GR
[11]; 0.001 µM
  GR value: 0.951 GR
[11]; 0.003162 µM
  GR value: 0.816 GR
[11]; 0.01 µM
  GR value: 0.819 GR
[11]; 0.03162 µM
  GR value: 0.792 GR
[11]; 0.1 µM
  GR value: 0.852 GR
[11]; 0.3162 µM
  GR value: 0.646 GR
[11]; 1 µM
  GR value: 0.479 GR
[11]; 3.162 µM
  GR value: 0.531 GR
[11]; 10 µM
  GR value: 0.0901 GR
[12]; 0.0003162 µM
  GR value: 1.04 GR
[12]; 0.001 µM
  GR value: 1.1 GR
[12]; 0.003162 µM
  GR value: 1.06 GR
[12]; 0.01 µM
  GR value: 0.938 GR
[12]; 0.03162 µM
  GR value: 0.751 GR
[12]; 0.1 µM
  GR value: 0.557 GR
[12]; 0.3162 µM
  GR value: 0.518 GR
[12]; 1 µM
  GR value: 0.414 GR
[12]; 3.162 µM
  GR value: 0.399 GR
[13]; 0.001 µM
  GR value: 0.866 GR
[13]; 0.003162 µM
  GR value: 0.775 GR
[13]; 0.01 µM
  GR value: 0.537 GR
[13]; 0.03162 µM
  GR value: 0.323 GR
[13]; 0.1 µM
  GR value: 0.266 GR
[13]; 0.3162 µM
  GR value: 0.301 GR
[13]; 1 µM
  GR value: 0.263 GR
[13]; 3.162 µM
  GR value: 0.176 GR
[13]; 10 µM
  GR value: -0.621 GR
[14]; 0.0001 µM
  GR value: 1.05 GR
[14]; 0.0003162 µM
  GR value: 1.11 GR
[14]; 0.001 µM
  GR value: 1.06 GR
[14]; 0.003162 µM
  GR value: 1.05 GR
[14]; 0.01 µM
  GR value: 0.907 GR
[14]; 0.03162 µM
  GR value: -0.453 GR
[14]; 0.1 µM
  GR value: -0.581 GR
[14]; 0.3162 µM
  GR value: -0.571 GR
[14]; 1 µM
  GR value: -0.53 GR
[15]; 0.001 µM
  GR value: 0.927 GR
[15]; 0.003162 µM
  GR value: 0.816 GR
[15]; 0.01 µM
  GR value: 0.661 GR
[15]; 0.03162 µM
  GR value: 0.649 GR
[15]; 0.1 µM
  GR value: 0.481 GR
[15]; 0.3162 µM
  GR value: 0.514 GR
[15]; 1 µM
  GR value: 0.528 GR
[15]; 3.162 µM
  GR value: 0.394 GR
[15]; 10 µM
  GR value: 0.425 GR
[16]; 0.0001 µM
  GR value: 0.957 GR
[16]; 0.0003162 µM
  GR value: 0.973 GR
[16]; 0.001 µM
  GR value: 0.939 GR
[16]; 0.003162 µM
  GR value: 1.11 GR
[16]; 0.01 µM
  GR value: 0.84 GR
[16]; 0.03162 µM
  GR value: 0.788 GR
[16]; 0.1 µM
  GR value: 0.153 GR
[16]; 0.3162 µM
  GR value: -0.45 GR
[16]; 1 µM
  GR value: -0.532 GR
[17]; 0.0001 µM
  GR value: 0.984 GR
[17]; 0.0003162 µM
  GR value: 1.06 GR
[17]; 0.001 µM
  GR value: 1.11 GR
[17]; 0.003162 µM
  GR value: 0.868 GR
[17]; 0.01 µM
  GR value: 0.532 GR
[17]; 0.03162 µM
  GR value: -0.0495 GR
[17]; 0.1 µM
  GR value: -0.397 GR
[17]; 0.3162 µM
  GR value: -0.435 GR
[17]; 1 µM
  GR value: -0.711 GR

## SUM1315
[1]
  GR50, 72 h: 0.00246 µM
[2]
  GR50, 72 h: 0.388 µM
[3]
  GR50, 72 h: 0.419 µM
[4]
  GR50, 72 h: > 10 µM
[6]
  GR50, 72 h: 1.47 µM
[7]
  GR50, 72 h: 0.511 µM
[18]
  GR50, 72 h: 4.46 µM
[8]
  GR50, 72 h: 0.669 µM
[9]
  GR50, 72 h: 0.37 µM
[10]; 0.001 µM
  GR value: 0.771 GR
[10]; 0.003162 µM
  GR value: 0.514 GR
[10]; 0.01 µM
  GR value: 0.439 GR
[10]; 0.03162 µM
  GR value: 0.478 GR
[10]; 0.1 µM
  GR value: 0.393 GR
[10]; 0.3162 µM
  GR value: 0.264 GR
[10]; 1 µM
  GR value: 0.133 GR
[10]; 3.162 µM
  GR value: 0.0326 GR
[10]; 10 µM
  GR value: -0.443 GR
[11]; 0.001 µM
  GR value: 0.883 GR
[11]; 0.003162 µM
  GR value: 0.736 GR
[11]; 0.01 µM
  GR value: 0.79 GR
[11]; 0.03162 µM
  GR value: 0.651 GR
[11]; 0.1 µM
  GR value: 0.822 GR
[11]; 0.3162 µM
  GR value: 0.641 GR
[11]; 1 µM
  GR value: 0.497 GR
[11]; 3.162 µM
  GR value: 0.572 GR
[11]; 10 µM
  GR value: 0.21 GR
[12]; 0.0003162 µM
  GR value: 1.07 GR
[12]; 0.001 µM
  GR value: 0.996 GR
[12]; 0.003162 µM
  GR value: 0.938 GR
[12]; 0.01 µM
  GR value: 0.855 GR
[12]; 0.03162 µM
  GR value: 0.593 GR
[12]; 0.1 µM
  GR value: 0.522 GR
[12]; 0.3162 µM
  GR value: 0.365 GR
[12]; 1 µM
  GR value: 0.417 GR
[12]; 3.162 µM
  GR value: 0.293 GR
[13]; 0.001 µM
  GR value: 1.08 GR
[13]; 0.003162 µM
  GR value: 0.8 GR
[13]; 0.01 µM
  GR value: 0.704 GR
[13]; 0.03162 µM
  GR value: 0.436 GR
[13]; 0.1 µM
  GR value: 0.402 GR
[13]; 0.3162 µM
  GR value: 0.259 GR
[13]; 1 µM
  GR value: 0.177 GR
[13]; 3.162 µM
  GR value: 0.109 GR
[13]; 10 µM
  GR value: -0.164 GR
[14]; 0.0001 µM
  GR value: 1.11 GR
[14]; 0.0003162 µM
  GR value: 0.993 GR
[14]; 0.001 µM
  GR value: 1.01 GR
[14]; 0.003162 µM
  GR value: 0.916 GR
[14]; 0.01 µM
  GR value: 0.617 GR
[14]; 0.03162 µM
  GR value: -0.616 GR
[14]; 0.1 µM
  GR value: -0.644 GR
[14]; 0.3162 µM
  GR value: -0.639 GR
[14]; 1 µM
  GR value: -0.664 GR
[15]; 0.001 µM
  GR value: 0.841 GR
[15]; 0.003162 µM
  GR value: 0.69 GR
[15]; 0.01 µM
  GR value: 0.764 GR
[15]; 0.03162 µM
  GR value: 0.763 GR
[15]; 0.1 µM
  GR value: 0.671 GR
[15]; 0.3162 µM
  GR value: 0.57 GR
[15]; 1 µM
  GR value: 0.582 GR
[15]; 3.162 µM
  GR value: 0.527 GR
[15]; 10 µM
  GR value: 0.445 GR
[16]; 0.0001 µM
  GR value: 0.9 GR
[16]; 0.0003162 µM
  GR value: 1.1 GR
[16]; 0.001 µM
  GR value: 0.822 GR
[16]; 0.003162 µM
  GR value: 0.987 GR
[16]; 0.01 µM
  GR value: 1.1 GR
[16]; 0.03162 µM
  GR value: 1.14 GR
[16]; 0.1 µM
  GR value: 1.04 GR
[16]; 0.3162 µM
  GR value: 0.685 GR
[16]; 1 µM
  GR value: -0.604 GR
[17]; 0.0001 µM
  GR value: 1.24 GR
[17]; 0.0003162 µM
  GR value: 1.06 GR
[17]; 0.001 µM
  GR value: 1.06 GR
[17]; 0.003162 µM
  GR value: 0.773 GR
[17]; 0.01 µM
  GR value: 0.999 GR
[17]; 0.03162 µM
  GR value: 0.982 GR
[17]; 0.1 µM
  GR value: 0.978 GR
[17]; 0.3162 µM
  GR value: 0.391 GR
[17]; 1 µM
  GR value: -0.906 GR
